In assay [1] the test system is Drug-sensitive cells SKN-SH. In words: Prevention of development of doxorubicin resistance, viable cell count, SKN-SH. It counts as cell-based, human. The text has this: (§1) As discussed above, inhibition of cathepsin L enhanced drug response only in drug-resistant cells. Another aspect of the present invention was to determine whether treatment of drug-sensitive cancer cells with this drug combination prevents them from becoming drug resistant. […] After 4 days in culture, the surviving cells were subjected to the same treatment for an additional four days. The cells were then subjected to two subsequent treatments for four days with 2.5×10^−8 M doxorubicin with or without the cathepsin L inhibitor at 10 μM. The surviving cells were then treated with doxorubicin 5×10^−8 M doxorubicin with or without cathepsin L (10 μM) for four days. At the end of each incubation period, viable cells were counted.

The test system of assay [2] is Drug-sensitive cells Saos2. Kind of assay: Prevention of development of doxorubicin resistance, viable cell count, Saos2. The format is cell-based.
Excerpt: as §1

Another assay deals with caspase-3. Kind of assay: Western blot of cleaved (active) caspase-3 in SKN-SH/R cells. The note with it: cathepsin L inhibitor 10 μM + doxorubicin 10^−6M, 24 hours. It counts as cell-based, human. The method, then: (§2) Doxorubicin resistant human neuroblastoma cells (SKN-SH/R) were subjected, in 25 cm^2 flasks, to treatment with a cathepsin L inhibitor and doxorubicin each, alone or in combination. After 24 hours of incubation, culture medium was removed and the cells washed twice with PBS. Proteins were solubilized with 150 μl of lysis buffer (50 mM HEPES pH 7.4, 150 mM NaCl, 100 mM NaF, 1 mM MgCl2, 1.5 mM EGTA, 10% glycerol, 1% Triton X100, 1 μg/ml leupeptin, 1 mM phenyl-methyl-sulfonyl-fluoride). Equal quantities of protein were separated by electrophoresis on a 12% SDS-PAGE gel and transferred to Immobilon-P membranes (Millipore, Bedford, Mass.). P21/WAF1 and cleaved (active) caspase-3 were detected by reaction with specific primary antibodies (P21/WAF1 primary antibody from Santa Cruz Biotechnologies, Santa Cruz, Calif.; and caspase-3 primary antibody from Cell Signaling Technology, Inc., Beverly, Mass.) after one hour of incubation at room temperature in PBS (pH7.4). This was followed by incubation of the membrane for 1 hour at room temperature with presence of secondary anti-Rabbit antibody linked to horseradish peroxidase (Bio-Rad Laboratories, Hercules, Calif.) (1/1000 in PBS). Reactive bands were detected by chemiluminescence.
In general terms: A western blot detects proteins with antibodies after separation by electrophoresis.

The subject of the next assay is p21/WAF1. Kind of assay: Western blot of p21/WAF1 in SKN-SH/R cells. It counts as cell-based, human. The note with it: 24 hours. The method, then:
as §2

The next assay deals with T1, Purified cathepsin L (Homo sapiens, UniProt P07711).
T1 construct: purchased Biomol, Plymouth Meeting, Pa
Kind of assay: Cathepsin L activity, fluorogenic substrate (CV-Cathepsin L Detection Kit). It counts as biochemical. The note with it: inhibitor 10 μM, 200 ng cathepsin L; positive control 4e+5 AU, negative control 0.75e+5 AU. Here is the method:
Cathepsin L activity was measured using a commercially available kit according to the manufacturer's procedure (CV-Cathepsin L Detection Kit; Biomol, Plymouth Meeting, Pa.). Purified cathepsin L (Biomol, Plymouth Meeting, Pa.) (200 ng) was incubated with each inhibitor (10 μM) in a 96 well plate for 15 min at room temperature in 100 μl of reaction buffer (100 mM sodium acetate pH 5, 1 mM EDTA (ethylenediaminetetraacetic acid), and 4 mM dithiothreitol). The protease inhibitors tested were: lactacystin and inhibitors of cathepsin L, B, S, and K. 100 μl of a fluorogenic substrate (CV-Cathepsin L Detection Kit; Biomol, Plymouth Meeting, Pa.) were added and incubated for an additional 30 min at room temperature. Fluorescence was measured in a plate reader (Victor Multilabel Counter, Perkin Elmer) at 380 nm excitation and […] emission wavelengths.

For assay [3], the system named is drug resistant osteosarcoma cells (Saos2-R). Kind of assay: Cell count of drug resistant osteosarcoma cells after siRNA or inhibitor and doxorubicin. The settings on record: doxorubicin 10^−5 M for 48 hours, untreated 1.6e+6 AU. The format is cell-based. The text has this:
The human cathepsin L siRNA was designed in our laboratory by studying a cDNA sequence of the human cathepsin L gene (SEQ ID NO: 2). We selected a segment defined by nucleotide numbers 91-111, sent that sequence to a contract laboratory (Dharmacon, Lafayette, Colo.), which synthesized an siRNA molecule based on the aforementioned segment. The segment of the human cathepsin L cDNA we used was: […] (91-111) (SEQ ID NO: 2). On the day before transfection, 3×10^5 drug resistant osteosarcoma cells (Saos2-R) were seeded in 6-well plates and grown in 2.5 ml of DMEM supplemented with 10% FBS. After 24 hours in culture, 25 μl of 20 μM stock solution of siRNA duplexes were transfected into cells with GeneSilencer™ SiRNA Transfection Reagent Kit (Gene Therapy Systems, Inc., San Diego, Calif.). Briefly, adherent cells were transfected in 6 well plates. Cells were about 70% confluent. In one tube, 5 μl of GeneSilencer™ was mixed with 25 μl of serum free medium. In a second tube, 25 μl of siRNA diluent was mixed with […] of serum free medium and 20 μl of siRNA (100 nM). After incubation of tubes 1 and 2, at room temperature for 5 min, they were mixed together into tube 3 and incubated for an additional 5 min. The content of tube 3 was added to the cells in the 6 well plates and incubated for 2 days before the addition of the drug. After 48 hours of incubation, doxorubicin (10^−5 M) was added and maintained in culture for an additional 48 hours before analysis. The cells were counted and protein lysates were used to detect cathepsin L expression by Western blot as described above.

Assay [4] has as its system breast cancer (MCF-7/doxR). In words: cells. The settings on record: Homo sapiens, MCF7, 192 h, read-out: percentage of viable cells, single agent.
Protocol: (§7) The following additional cell lines were tested: breast cancer (MCF-7/doxR) (MCF: ATCC Cat. No. HTB-22) and ovarian cancer (A2780/CR; European collection of cell culture cat# 931112519, Salisbury, UK). Cells were treated with doxorubicin (10^−5M) and/or a cathepsin L inhibitor (25 μM) for eight days. Viable cell number was counted and normalized to 100% of non-treated cells.
The next assay concerns HL-60 wild type. In words: MTT cytotoxicity assay, HL-60 wild type cells. The settings on record: Homo sapiens, 96 hours, read-out: IC50 of doxorubicin alone (converted). The format is cell-based. Here is the method: (§3) Cytotoxic activity of doxorubicin and cysteine protease inhibitors were quantitatively determined by a calorimetric assay utilizing 3-(4,5-dimethyl-2-thiazolyl) 2,5-diphenyl tetrazolium bromide (MTT; Sigma-Aldrich, St. Louis, Mo.). Briefly, cells were seeded at 10^4 cells/well in 96-well plates and maintained in culture for 24 hours at 37° C. in DMEM supplemented with 10% FBS. Drugs were added to designated wells and cells were incubated for 96 hours, following which MTT (10 μL of 5 mg/ml solution) was added to each 100 μl well and incubated for 4 hours at 37° C. The cells were solubilized by incubation with 100 μl of HCl 0.5N in isopropanol for 15 hours at 37° C. The optical density of this solution was measured at 570 nm and the percentage of viable cells estimated by comparison with untreated control cells.
(§4) The effect of cathepsin L inhibitor was tested on drug sensitive and resistant (R) cell lines corresponding to various cancer types, including the human neuroblastoma cell line SKN-SH (ATCC Cat. No. HTB-11), the murine neuroblastoma cell line Neuro2A (ATCC Cat. No. CCL-131), the osteosarcoma cells Saos2 (ATCC Cat. No. HTB-85) and the leukemia cell line HL-60 (ATCC Cat. No. CCL240). The cells were treated with cathepsin L inhibitor with or without doxorubicin as described above. Cell viability was calculated after 96 hours of incubation with the drug combination. […]

The subject of the next assay is Saos2 wild type. In words: MTT cytotoxicity assay, Saos2 wild type cells. The format is cell-based. The settings on record: Homo sapiens, SAOS-2, 96 hours, read-out: IC50 of doxorubicin alone (converted). Here is the method:
as §3, §4

For assay [5], the system named is HL-60 doxorubicin resistance cells. Kind of assay: MTT cytotoxicity assay, HL-60 doxorubicin resistant cells. The format is cell-based. The note with it: Homo sapiens, 96 hours, read-out: IC50 of doxorubicin alone (converted). The method, then:
as §3, §4
(In general: Tetrazolium assays rely on reduction of a dye to a coloured formazan, in cell work by metabolically active cells.)

For assay [6], the system named is ovarian cancer (A2780/CR). Kind of assay: cells. The settings on record: Homo sapiens, A2780, 192 h, read-out: percentage of viable cells, single agent.
Protocol: as §7
Another assay has as its system SKN-SH/R cells. Kind of assay: MTT cytotoxicity assay, doxorubicin-resistant neuroblastoma cells. It counts as cell-based. The note with it: Homo sapiens, SK-N-SH, 96 h, read-out: IC50 (concentration at which 50% of cells remained viable) of the cytotoxic agent alone, SKN-SH/R cells, agent alone (control cells), 96 hours, MTT. Here is the method: (§5) Human neuroblastoma SKN-SH cells (ATCC Cat. No. HTB-11) were cultured in Dulbecco's Modified Eagles Medium (DMEM; Gibco, Grand Island, N.Y.) supplemented with 10% fetal bovine serum (FBS; Sigma-Aldrich, St. Louis, Mo.) at 37° C. in a 95% Air/5% CO2 atmosphere. Resistant cells to doxorubicin (SKN-SH/R) were selected by stepwise exposure to drug concentrations ranging from 10^−9 M through 10^−6 M over a time period of three months. The resulting cell line was subjected to treatment with the doxorubicin alone or in combination with: proteosome inhibitor (Lactacystin), cathepsin B inhibitor (L-3-trans-(Propylcarbamoyl)oxirane-2-carbonyl]-L-isoleucyl-L praline), cathespin L inhibitor (Z-Phe-Tyr(t-Bu)-diazomethylketone), cathespin K inhibitor (1,3-Bis(N-CBZ-Leu-NH)-2-propanonel,3 -Di(N-carbonbenzoyloxy-L-leucyl)amino acetone), or cathespin S inhibitor (Z-Phe-Leu-COCHO.H2O), (all available from Calbiochem-Novabiochem, San Diego) at 10 μM each to determine whether they affect cell response to doxorubicin.
(§6) Cytotoxic activity of doxorubicin and cysteine protease inhibitors were quantitatively determined by a calorimetric assay utilizing 3-(4,5-dimethyl-2-thiazolyl) 2,5-diphenyl tetrazolium bromide (MTT; Sigma-Aldrich, St. Louis, Mo.). […] The optical density of this solution was measured at 570 nm and the percentage of viable cells estimated by comparison with untreated control cells. […]

The subject of assay [7] is Doxorubicin resistant human neuroblastoma cells (SKN-SH/R). Kind of assay: Tumor growth of SKN-SH/R cells injected into nude mice. The format is in vivo. The settings on record: nude mice, i.p. on day 11, 14, 17; doxorubicin alone 1.5 mg/Kg or iCL alone 30 mg/Kg. Here is the method:
Doxorubicin resistant human neuroblastoma cells (SKN-SH/R) cells grown into 75 cm^2 flasks were harvested by trypsinization and centrifuged to remove trypsin. The pellet was then reconstituted in culture medium at 10^7 cell/ml. On day one, 100 μl (10^6 cells) were injected to the right flank of nude mice (5 per group) and after the tumor became palpable at day 11, mice were assigned to four groups: 1) controls (treated with the vehicle DMSO), 2) Dox. 1.5 mg/kg (treated with doxorubicin alone 1.5 mg/Kg), 3) iCL 30 mg/Kg (treated with cathepsin L inhibitor alone at 30 mg/Kg), and 4) Dox 1.5 mg/Kg+iCL 30 mg/Kg (treated with the combination of doxorubicin 1.5 mg/Kg and cathepsin L inhibitor 30 mg/Kg). Intraperetoneal injections were given on day 11, day 14, and day 17.

Assay [8] concerns Saos2 doxorubicin resistant. Kind of assay: MTT cytotoxicity assay, Saos2 doxorubicin resistant cells. It counts as cell-based. The settings on record: Homo sapiens, SAOS-2, 96 hours, read-out: IC50 of doxorubicin alone (converted). Here is the method:
as §3, §4

A further assay relates to Neuro2A wild type. Kind of assay: MTT cytotoxicity assay, Neuro2A wild type cells. The format is cell-based, murine. The settings on record: Mus musculus, N2a, 96 hours, read-out: IC50 of doxorubicin alone (converted). Here is the method: as §3, §4
A further assay deals with SKN-SH wild type cells. In words: MTT cytotoxicity assay, SKN-SH wild type cells. The format is cell-based. The note with it: Homo sapiens, SK-N-SH, 96 h, read-out: IC50 of the cytotoxic agent alone. The method, then: as §5, §6
In assay [9] the test system is Neuro2A doxorubicin resistant cells. Kind of assay: MTT cytotoxicity assay, Neuro2A doxorubicin resistant cells. The format is cell-based, murine. The settings on record: Mus musculus, N2a, 96 hours, read-out: IC50 of doxorubicin alone (converted). The method, then:
as §3, §4

Where [10] appears, read: repeated four-day treatments with increasing doxorubicin.

Peptide text beside a SMILES is read from it. * marks the point of attachment. Cbz = O=C(OCc1ccccc1)*; CHN2 = [N-]=[N+]=C*; tBu = CC(C)(C)*

T1 sequence (P07711 114-333, species assumed): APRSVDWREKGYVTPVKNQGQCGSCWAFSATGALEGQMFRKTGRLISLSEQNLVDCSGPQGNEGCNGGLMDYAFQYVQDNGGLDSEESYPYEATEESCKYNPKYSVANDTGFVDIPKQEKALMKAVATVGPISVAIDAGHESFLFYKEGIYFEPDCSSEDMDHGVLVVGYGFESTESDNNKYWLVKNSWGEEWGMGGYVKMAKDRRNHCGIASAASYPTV

Consider `CC[C@H](C)[C@H](NS(=O)(=O)c1ccc2ccccc2c1)C(=O)N[C@H](C=O)Cc1c[nH]c2ccccc12` [cathepsin L inhibitor (Napsule-Ile-Tryp), Napsule-Ile-Tryp], for which, in assay [1] (Dox 10^−9 M + inhibitor 10 μM), the “viable cells, doxorubicin plus cathepsin L inhibitor, first concentration” value is listed as “about 80%”. Also, in assay [2] (Dox 10^−9 M + inhibitor 10 μM), the “viable cells, doxorubicin plus cathepsin L inhibition, first concentration” value was “about 90%”.

With `CC(C)(C)Oc1ccc(C[C@H](NC(=O)[C@H](Cc2ccccc2)NC(=O)OCc2ccccc2)C(=O)C=[N+]=[N-])cc1` [cathepsin L inhibitor, Z-Phe-Tyr(t-Bu)-diazomethylketone] (Cbz-Phe-Tyr(tBu)-CHN2), the “caspase-3 activation (Western blot), combination with doxorubicin 10^−6M” value in the assay on caspase-3 is recorded as “increased caspase-3 activation”. For the same molecule, the “expression of p21/WAF1 (Western blot), combination with doxorubicin 10^−6M” value with p21/WAF1 (cathepsin L inhibitor 10 μM + doxorubicin 10^−6M) was “decreased expression of p21/WAF1”. In the assay on p21/WAF1 (cathepsin L inhibitor 10 μM + doxorubicin 10^−7M), the “expression of p21/WAF1 (Western blot), combination with doxorubicin 10^−7M” value was “enhanced expression of p21/WAF1”. The “cathepsin L activity (arbitrary units) in presence of inhibitor” value at Purified cathepsin L is on record as 1e+5 AU. The “cell number, in combination with doxorubicin” value in [3] stood at 2.0e+5 AU.

On to `COc1cccc2c1C(=O)c1c(O)c3c(c(O)c1C2=O)C[C@@](O)(C(=O)CO)C[C@@H]3O[C@H]1C[C@H](N)[C@H](O)[C@H](C)O1` [doxorubicin], for which the viability at 25 µM in [4] was about 50%; in [6], about 70%. Further, the “change in percentage of viable cells over successive treatments, doxorubicin alone” value in assay [1] (setting [10]) is recorded as “no change”. The IC50 in the assay with HL-60 wild type is about 56.2 nM; in the assay with Saos2 wild type, about 100 nM; in [5] it was about 31.6 µM; with SKN-SH/R cells it was about 178 nM; in assay [8], about 5.62 µM; with Neuro2A wild type, about 31.6 nM. For the same molecule, the IC50 with SKN-SH wild type cells was about 1.78 nM; in assay [9] it was about 3.16 µM. The “average tumor volume on day 27, single agent” value in assay [7] was “approximately 1600 mm^3”. For the same molecule, the “effect on percentage of viable cells over successive treatments, doxorubicin alone” value in assay [2] (setting [10]) is “no affect”.

The values above are taken from US20090312277A1, “Compositions And Methods For Reversing Or Preventing Resistance Of A Cancer Cell To A Cytotoxic Agent” (priority 2004, published 2009).
